Assay [1] concerns the target T1, N12 neuronal Src variant (Homo sapiens, UniProt P12931).
T1 construct: made in house
The assay can be described thus: Testing against neuronal Src variant N12. It counts as biochemical. As to conditions: Table 5. The procedure: (§1) The tyrosine kinase activity of Src, Csk and FGFr was determined using poly E4Y and ^32P-ATP. Briefly, enzymes were assayed in a reaction mixture consisting of 0.15 M EPPS-NaOH (pH 8.0) with 6 mM MgCl2, 0.2 mM γ^32P-ATP (0.2-0.4 mCi/μmol), 10% glycerol, 0.1% Triton X-100, and poly E4Y. Poly E4Y is a synthetic peptide whose phosphorylation is measured in this assay by the addition of the radioactively labeled phosphate from the ATP (Budde et al., 1995). […] When ATP was varied (0, 50, 100 and 250 μM), poly E4Y was kept constant at 150 μg/ml.
(§2) Thienopyrimidine-based compounds were also tested against neuronal Src variants (Table 5).

Assay [2] deals with colon adenocarcinoma cell line, HT29. Description: MTT reduction assay, in vitro drug cytotoxicity. It counts as cell-based. As to conditions: Homo sapiens, HT-29, 72 hours incubation, read-out: IC50, HT-29 cells. The procedure: Compounds synthesized using the methods described above were tested using a standard MTT assay (Green et al., 1984) against a colon adenocarcinoma cell line, HT29. A human ovarian cancer cell line, SKOv-3 may also be used. The use of an MTT assay using these cells is recognized as an accepted assay for anti-tumor activity by those in the field. The in vitro activity of Src inhibitors of the present invention against diseases other than cancer may be assayed by methods known to those of skill in the art.
In vitro drug cytotoxicities against a colon adenocarcinoma cell line, HT29 was assessed by using the MTT reduction assay, as previously reported (Green et al., 1984). A human ovarian cancer cell line, SKOv-3 may also be used. The MTT dye was obtained from Sigma Chemical Co. (St. Louis, Mo.). The drugs were dissolved in DMSO:PEG 300 (1:1). Neither DMSO or PEG 300 are toxic to cells at a concentration of 31.6 μg/ml. […] The optical density of each well was then measured with a microplate spectrophotometer at a wavelength of 570 nm with a reference cell at 650 nm. The percent cell viability was calculated by the following equation: % cell viability=(OD treated wells/OD control wells)×100
where OD is the mean optical density from four determinations. The percent cell viability values were plotted against the drug concentrations used, and the IC50 was calculated from the curve.
(Tetrazolium assays rely on reduction of a dye to a coloured formazan, in cell work by metabolically active cells.)

Assay [3] addresses T2, N23 neuronal Src variant (Homo sapiens, UniProt P12931).
T2 construct: made in house
Description: Testing against neuronal Src variant N23. The assay is classed as biochemical. As to conditions: Table 5. The procedure:
as §1, §2

Assay [4] deals with T3, Recombinant human Src (Homo sapiens, UniProt P12931).
T3 construct: made in house; host or cells: baculovirus-insect cell system
T3 sequence (P12931 whole entry): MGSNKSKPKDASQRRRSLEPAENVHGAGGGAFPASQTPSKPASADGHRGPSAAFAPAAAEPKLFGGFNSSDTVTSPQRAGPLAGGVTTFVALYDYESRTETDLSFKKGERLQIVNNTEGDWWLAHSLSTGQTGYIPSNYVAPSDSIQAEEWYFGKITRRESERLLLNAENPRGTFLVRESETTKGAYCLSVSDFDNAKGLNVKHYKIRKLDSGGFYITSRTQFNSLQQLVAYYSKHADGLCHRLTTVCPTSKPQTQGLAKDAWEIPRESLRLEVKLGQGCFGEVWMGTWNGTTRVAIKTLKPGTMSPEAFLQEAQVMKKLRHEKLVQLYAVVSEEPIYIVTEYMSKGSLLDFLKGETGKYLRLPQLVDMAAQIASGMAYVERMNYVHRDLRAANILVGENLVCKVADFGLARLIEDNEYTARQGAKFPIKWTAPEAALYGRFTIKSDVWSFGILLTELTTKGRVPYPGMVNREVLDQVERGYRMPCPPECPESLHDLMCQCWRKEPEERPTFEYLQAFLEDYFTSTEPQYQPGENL
Description: Src tyrosine kinase activity, poly E4Y and 32P-ATP. The assay is classed as biochemical. The essentials: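 Recombinant GST-Csk (E. coli) or baculovirus-expressed human Src assayed on poly E4Y in 0.15 M EPPS-NaOH pH 8.0, 6 mM MgCl2, 0.2 mM γ32P-ATP, 10% glycerol, 0.1% Triton X-100. Read-out is 32P incorporation into poly E4Y; for ATP variation (0–250 μM), poly E4Y held at 150 μg/ml.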

pIC50: −log10 of the molar value. Read-outs that look alike come from different tables or passages of the source. Some results are limits rather than exact numbers.

In patent US7285556B2, “Thienopyrimidine-based inhibitors of the src family” (Board of Regents, The University of Texas Systems, priority 2000, dated 2007) one finds IC50 data, which are given here for one molecule.

T2 sequence (P12931 1-553 isoform P12931-3): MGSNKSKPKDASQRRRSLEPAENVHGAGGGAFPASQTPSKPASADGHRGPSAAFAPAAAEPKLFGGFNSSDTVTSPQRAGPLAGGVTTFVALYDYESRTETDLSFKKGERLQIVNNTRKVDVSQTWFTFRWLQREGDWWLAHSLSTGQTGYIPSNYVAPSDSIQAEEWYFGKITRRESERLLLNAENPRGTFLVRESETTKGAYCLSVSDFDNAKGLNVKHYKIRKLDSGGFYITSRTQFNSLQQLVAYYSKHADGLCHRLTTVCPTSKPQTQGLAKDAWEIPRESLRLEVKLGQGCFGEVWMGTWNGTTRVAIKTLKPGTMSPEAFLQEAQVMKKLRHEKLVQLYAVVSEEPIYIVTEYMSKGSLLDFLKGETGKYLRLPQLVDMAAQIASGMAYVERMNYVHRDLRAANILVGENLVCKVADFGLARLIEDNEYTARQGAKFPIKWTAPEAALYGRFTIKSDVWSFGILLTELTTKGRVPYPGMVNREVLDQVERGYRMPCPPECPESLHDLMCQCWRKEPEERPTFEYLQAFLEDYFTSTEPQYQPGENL
T1 sequence (P12931 1-542 isoform P12931-2): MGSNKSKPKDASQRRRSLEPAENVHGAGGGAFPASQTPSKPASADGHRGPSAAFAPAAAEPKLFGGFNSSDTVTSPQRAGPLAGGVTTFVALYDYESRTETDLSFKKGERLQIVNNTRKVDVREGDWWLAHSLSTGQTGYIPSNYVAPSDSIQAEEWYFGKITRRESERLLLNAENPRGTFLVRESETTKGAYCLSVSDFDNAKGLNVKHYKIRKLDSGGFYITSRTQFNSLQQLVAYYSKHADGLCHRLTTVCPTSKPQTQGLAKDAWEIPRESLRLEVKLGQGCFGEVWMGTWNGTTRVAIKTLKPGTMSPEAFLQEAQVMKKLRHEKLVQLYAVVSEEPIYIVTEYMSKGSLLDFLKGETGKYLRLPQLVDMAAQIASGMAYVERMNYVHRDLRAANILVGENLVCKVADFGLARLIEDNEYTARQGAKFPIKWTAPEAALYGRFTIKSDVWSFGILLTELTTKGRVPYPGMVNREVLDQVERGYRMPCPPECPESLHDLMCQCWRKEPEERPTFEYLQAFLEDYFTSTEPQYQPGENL

For `Cc1csc2c(NN=Cc3cccnc3)ncnc12` [Compound 27, 3-Pyridinecarboxaldehyde(7-methylthieno[3,2-d]pyrimidin-4-yl)hydrazone], the pIC50 is 6.23 in assay [1]; 4.89 in assay [2]; 6.55 in assay [3]; not below 5.70 in assay [4] (Table 2, read-out: Src IC50 (especially good inhibitors of Src)); 6.43 in assay [4] (Table 5, N6 = Src, read-out: N6(Src) IC50); more than 5.70 in assay [4] (read-out: IC50 (preferred compounds for treatment of Src family-related disease)).

Usually pIC50 stands for the negative decadic logarithm of the IC50, by convention in mol/L.
